Test results: ChEMBL document CHEMBL4052762, “Synthesis and biological evaluation of pyrrole-based chalcones as CYP1 enzyme inhibitors, for possible prevention of cancer and overcoming cisplatin resistance” (Bioorg Med Chem Lett, 2017)

How the values were obtained:
[1] = target: T1, Cytochrome P450 1A1 (Homo sapiens, UniProt P04798); test: Inhibition of human CYP1A1 bound to yeast microsomal membrane using 7-ethoxyresorufin as substrate after 10 mins by fluorescence assay
T1 sequence (P04798 whole entry): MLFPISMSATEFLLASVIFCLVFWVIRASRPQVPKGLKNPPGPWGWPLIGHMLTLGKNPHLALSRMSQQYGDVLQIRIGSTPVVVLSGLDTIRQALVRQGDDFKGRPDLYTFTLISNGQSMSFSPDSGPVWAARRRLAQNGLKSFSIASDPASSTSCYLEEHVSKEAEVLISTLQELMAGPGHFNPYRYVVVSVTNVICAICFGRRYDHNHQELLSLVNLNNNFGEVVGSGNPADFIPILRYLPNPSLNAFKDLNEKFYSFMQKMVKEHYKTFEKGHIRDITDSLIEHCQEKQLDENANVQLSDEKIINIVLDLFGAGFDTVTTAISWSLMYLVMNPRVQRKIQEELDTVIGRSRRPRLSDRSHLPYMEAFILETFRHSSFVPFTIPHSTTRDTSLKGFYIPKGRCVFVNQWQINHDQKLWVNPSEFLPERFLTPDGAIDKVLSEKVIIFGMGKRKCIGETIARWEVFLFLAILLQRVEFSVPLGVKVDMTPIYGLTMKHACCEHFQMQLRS

[2] = target: T1, Cytochrome P450 1A1; test: Inhibition of human CYP1A1 expressed in HEK293 cells using fluorogenic substrate 7-ethoxyresorufin as substrate preincubated for 30 mins followed by substrate addition measured for 60 mins by fluorescence assay; assay type: cell-based
[3] = target: T2, Cytochrome P450 1A2 (Homo sapiens, UniProt P05177); test: Inhibition of human CYP1A2 bound to yeast microsomal membrane using 3-cyano-7-ethoxycoumarin as substrate after 10 mins by fluorescence assay
T2 sequence (P05177 whole entry): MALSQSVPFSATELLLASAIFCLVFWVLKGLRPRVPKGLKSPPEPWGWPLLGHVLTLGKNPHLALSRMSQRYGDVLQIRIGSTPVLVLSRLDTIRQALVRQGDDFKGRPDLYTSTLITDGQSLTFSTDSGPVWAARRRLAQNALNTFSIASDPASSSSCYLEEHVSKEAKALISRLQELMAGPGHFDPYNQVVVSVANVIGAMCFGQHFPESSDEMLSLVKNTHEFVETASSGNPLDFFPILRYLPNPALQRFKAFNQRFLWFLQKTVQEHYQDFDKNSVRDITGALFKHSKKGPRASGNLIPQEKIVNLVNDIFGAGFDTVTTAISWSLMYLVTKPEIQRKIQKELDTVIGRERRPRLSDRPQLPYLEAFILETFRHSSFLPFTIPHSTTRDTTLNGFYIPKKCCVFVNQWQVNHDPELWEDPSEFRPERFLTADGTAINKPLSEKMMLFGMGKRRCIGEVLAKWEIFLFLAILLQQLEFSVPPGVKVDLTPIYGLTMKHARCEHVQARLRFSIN

[4] = target: Cytochrome P450 2C19 (Homo sapiens, UniProt P33261); test: Inhibition of human CYP2C19 bound to yeast microsomal membrane using 3-cyano-7-ethoxycoumarin as substrate after 10 mins by fluorescence assay; assay type: ADME
Chain of Cytochrome P450 2C19 (P33261 whole entry): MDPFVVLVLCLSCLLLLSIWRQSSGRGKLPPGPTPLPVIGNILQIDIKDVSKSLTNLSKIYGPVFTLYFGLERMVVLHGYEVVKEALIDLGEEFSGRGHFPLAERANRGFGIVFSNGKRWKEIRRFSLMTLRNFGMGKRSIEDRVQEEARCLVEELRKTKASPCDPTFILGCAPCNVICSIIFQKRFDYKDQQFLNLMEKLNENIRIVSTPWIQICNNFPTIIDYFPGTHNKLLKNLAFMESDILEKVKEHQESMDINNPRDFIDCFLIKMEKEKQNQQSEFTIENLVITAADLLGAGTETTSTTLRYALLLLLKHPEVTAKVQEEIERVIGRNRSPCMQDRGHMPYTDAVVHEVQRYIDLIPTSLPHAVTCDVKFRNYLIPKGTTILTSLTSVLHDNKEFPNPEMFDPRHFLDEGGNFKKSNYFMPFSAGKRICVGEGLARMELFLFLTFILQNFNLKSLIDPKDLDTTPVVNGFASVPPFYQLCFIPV

[5] = target: T3, Aryl hydrocarbon receptor (Homo sapiens, UniProt P35869); test: Antagonist activity at human AhR expressed in Saccharomyces cerevisiae W303-1A (ATCC 208352) transformed with an episomal plasmid containing a minimal CYC1 promoter, with a concatemer of five XRE enhancer sequences, linked to eGFP reporter gene and co-expressing ARNT assessed as inhibition of B[a]P agonist induced XRE-driven eGFP expression by measuring eGFP units at 20 uM after 18 hrs by …
T3 sequence (P35869 whole entry): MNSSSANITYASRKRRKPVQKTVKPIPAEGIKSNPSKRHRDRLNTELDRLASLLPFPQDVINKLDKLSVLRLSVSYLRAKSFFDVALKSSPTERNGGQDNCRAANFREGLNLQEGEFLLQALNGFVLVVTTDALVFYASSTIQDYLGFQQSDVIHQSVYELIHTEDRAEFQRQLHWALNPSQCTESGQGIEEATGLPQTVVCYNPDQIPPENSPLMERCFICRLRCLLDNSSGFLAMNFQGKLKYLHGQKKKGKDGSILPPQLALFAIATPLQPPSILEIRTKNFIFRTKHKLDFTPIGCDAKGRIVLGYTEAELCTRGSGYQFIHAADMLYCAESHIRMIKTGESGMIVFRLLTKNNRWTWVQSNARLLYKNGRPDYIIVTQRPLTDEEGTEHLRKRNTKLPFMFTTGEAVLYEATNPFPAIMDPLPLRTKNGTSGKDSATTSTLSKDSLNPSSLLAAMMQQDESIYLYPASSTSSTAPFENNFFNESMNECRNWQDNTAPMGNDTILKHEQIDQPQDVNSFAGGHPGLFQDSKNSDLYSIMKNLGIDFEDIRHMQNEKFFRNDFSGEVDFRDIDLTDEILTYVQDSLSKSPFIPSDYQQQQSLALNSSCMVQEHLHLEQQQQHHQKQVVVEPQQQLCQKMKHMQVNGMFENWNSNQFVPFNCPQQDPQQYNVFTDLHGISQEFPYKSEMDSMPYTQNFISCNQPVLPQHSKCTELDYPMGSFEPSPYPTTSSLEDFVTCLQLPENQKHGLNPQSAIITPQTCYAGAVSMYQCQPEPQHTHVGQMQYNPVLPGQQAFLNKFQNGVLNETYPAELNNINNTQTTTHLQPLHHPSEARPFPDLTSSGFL

[6] = target: Cytochrome P450 2C9 (Homo sapiens, UniProt P11712); test: Inhibition of human CYP2C9 bound to yeast microsomal membrane using 3-cyano-7-ethoxycoumarin as substrate after 10 mins by fluorescence assay; assay type: ADME
Chain of Cytochrome P450 2C9 (P11712 whole entry): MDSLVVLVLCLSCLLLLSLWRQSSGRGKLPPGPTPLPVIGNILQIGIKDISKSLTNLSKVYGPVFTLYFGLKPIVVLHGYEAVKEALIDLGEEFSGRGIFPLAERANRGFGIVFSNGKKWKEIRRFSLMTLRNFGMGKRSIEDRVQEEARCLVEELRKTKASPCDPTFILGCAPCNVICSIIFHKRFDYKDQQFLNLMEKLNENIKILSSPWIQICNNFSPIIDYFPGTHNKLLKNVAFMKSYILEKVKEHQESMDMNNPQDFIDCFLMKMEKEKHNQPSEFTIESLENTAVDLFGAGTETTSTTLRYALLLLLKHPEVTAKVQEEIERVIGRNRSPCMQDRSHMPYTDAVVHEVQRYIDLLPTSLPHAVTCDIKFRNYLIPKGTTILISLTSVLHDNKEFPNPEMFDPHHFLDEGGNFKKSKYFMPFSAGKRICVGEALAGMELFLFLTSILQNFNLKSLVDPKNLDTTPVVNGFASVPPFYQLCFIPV

[7] = target: Cytochrome P450 2D6 (Homo sapiens, UniProt P10635); test: Inhibition of human CYP2D6 expressed in HEK293 cells using fluorogenic 7-ethoxy-methyloxy-3-cyanocoumarin as substrate preincubated for 30 mins followed by substrate addition measured for 60 mins by fluorescence assay; assay type: ADME, cell-based
Chain of Cytochrome P450 2D6 (P10635 whole entry): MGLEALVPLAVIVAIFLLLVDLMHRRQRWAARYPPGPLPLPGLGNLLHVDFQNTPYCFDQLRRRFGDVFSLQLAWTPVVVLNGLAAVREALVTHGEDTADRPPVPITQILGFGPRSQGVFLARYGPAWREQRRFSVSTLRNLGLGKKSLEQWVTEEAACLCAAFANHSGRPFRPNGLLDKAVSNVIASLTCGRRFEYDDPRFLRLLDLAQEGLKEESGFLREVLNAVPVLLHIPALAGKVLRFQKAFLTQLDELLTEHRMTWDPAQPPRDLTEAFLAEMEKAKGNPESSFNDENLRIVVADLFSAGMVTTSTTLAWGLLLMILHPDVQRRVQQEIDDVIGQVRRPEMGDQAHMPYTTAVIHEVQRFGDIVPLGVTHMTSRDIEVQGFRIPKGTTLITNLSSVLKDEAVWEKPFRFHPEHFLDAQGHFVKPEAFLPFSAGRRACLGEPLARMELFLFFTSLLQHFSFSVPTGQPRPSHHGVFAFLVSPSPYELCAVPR

[8] = target: T4, Cytochrome P450 1B1 (Homo sapiens, UniProt Q16678); test: Inhibition of human CYP1B1 expressed in HEK293 cells using fluorogenic 7-ethoxyresorufin as substrate preincubated for 30 mins followed by substrate addition measured for 60 mins by fluorescence assay; assay type: cell-based
T4 sequence (Q16678 whole entry): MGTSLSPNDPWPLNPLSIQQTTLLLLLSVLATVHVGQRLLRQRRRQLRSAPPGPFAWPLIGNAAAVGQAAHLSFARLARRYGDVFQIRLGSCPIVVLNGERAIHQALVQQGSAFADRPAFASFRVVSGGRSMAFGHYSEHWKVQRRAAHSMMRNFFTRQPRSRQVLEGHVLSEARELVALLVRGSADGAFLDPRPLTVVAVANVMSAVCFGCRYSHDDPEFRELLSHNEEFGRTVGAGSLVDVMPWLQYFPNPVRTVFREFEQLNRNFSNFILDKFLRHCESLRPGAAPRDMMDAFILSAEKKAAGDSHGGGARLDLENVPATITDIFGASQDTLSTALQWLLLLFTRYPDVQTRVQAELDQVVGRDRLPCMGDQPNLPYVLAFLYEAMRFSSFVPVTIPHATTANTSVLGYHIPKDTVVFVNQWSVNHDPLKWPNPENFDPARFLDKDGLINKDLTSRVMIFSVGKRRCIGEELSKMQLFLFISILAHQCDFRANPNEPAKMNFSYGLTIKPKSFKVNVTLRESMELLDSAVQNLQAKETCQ

[9] = target: T3, Aryl hydrocarbon receptor; test: Antagonist activity at human AhR expressed in Saccharomyces cerevisiae W303-1A (ATCC 208352) transformed with an episomal plasmid containing a minimal CYC1 promoter, with a concatemer of five XRE enhancer sequences, linked to eGFP reporter gene and co-expressing ARNT assessed as inhibition of B[a]P agonist induced XRE-driven eGFP expression by measuring eGFP units at 1 uM after 18 hrs by …

## COc1ccccc1/C=C/C(=O)c1ccc[nH]1
[1]
  IC50: 0.9 µM
[2]
  IC50: 1.2 µM
[3]
  IC50: 1.1 µM
[4]
  IC50: > 20 µM
[5]
  Activity: 120 U
[6]
  IC50: > 20 µM
[7]
  IC50: 20 µM
[8]
  IC50: 1.2 µM
[9]
  Activity: 600 U

## O=C(/C=C/c1ccccc1Cl)c1ccc[nH]1
[1]
  IC50: 9.1 µM
[2]
  IC50: > 20 µM
[3]
  IC50: 0.7 µM
[4]
  IC50: > 20 µM
[5]
  Activity: 285 U
[6]
  IC50: > 20 µM
[7]
  IC50: > 10 µM
[8]
  IC50: 0.25 µM
[9]
  Activity: 920 U

## O=C(/C=C/c1ccc(OC(F)(F)F)cc1)c1ccc[nH]1
[1]
  IC50: > 20 µM
[2]
  IC50: > 20 µM
[3]
  IC50: > 20 µM
[4]
  IC50: > 20 µM
[5]
  Activity: 955 U
[6]
  IC50: > 20 µM
[7]
  IC50: > 20 µM
[8]
  IC50: > 20 µM
[9]
  Activity: 955 U
